Reference: ChEMBL document CHEMBL1151182, “Phytochemical and larvicidal studies on Stemona curtisii: structure of a new pyrido[1,2-a]azepine Stemona alkaloid” (2004)
Values after ≈ are worked out from the molar mass of the structure shown.

The molecules below were run on Anopheles minimus (assay: Larvicidal activity in Anopheles minimus HO by WHO method).
Type: functional

Going from `COC1=C(C)C(=O)O/C1=C1\O[C@]23CCCN4[C@H]([C@@H]5C[C@H](C)C(=O)O5)[C@H](C[C@H]4[C@H]2[C@@H]1C)O3` [OXYPROTOSTEMONINE] to `CC[C@H](O)[C@@H]1CC[C@@H]2O[C@@]34CCCN1[C@@H]2[C@H]3[C@H](C)/C(=C1/OC(=O)C(C)=C1OC)O4` [STEMOCURTISINOL], the LC50 rises from 4 µg/mL (≈ 9.27 µM) to 39 µg/mL (≈ 96.2 µM) (9.8-fold).

With `COC1=C(C)C(=O)O/C1=C1\O[C@@]23CCCN4CCC[C@H](O2)[C@H]4[C@H]3[C@@H]1C` [STEMOCURTISINE] the LC50 was 18 µg/mL (≈ 51.8 µM).
